{"source": "patent US20250255883A1", "about": "“Compositions and Methods for Treating Aging Hair” (CHL Industries, LLC, priority 2021, published 2025)", "test_system": "Normal human keratinocytes (HEKa)", "experiment": "Real-time quantitative PCR gene expression in normal human keratinocytes treated for 24 hours", "assay_type": "cell-based", "conditions": "vs. water-treated control"}
{"substance": "diethyl ester of copper (II) chlorin e6 [DECCE6]", "values": [{"measurement": "Fold Up- or Down-Regulation 18S", "setting": "gene 18S (housekeeping), 20 ug/mL", "value": 1.2, "unit": "Fold"}, {"measurement": "Fold Up- or Down-Regulation AQP3", "setting": "gene AQP3, 20 ug/mL", "value": 5.5, "unit": "Fold"}, {"measurement": "Fold Up- or Down-Regulation AREL1", "setting": "gene AREL1, 20 ug/mL", "value": "−5.8", "unit": "Fold"}, {"measurement": "Fold Up- or Down-Regulation ARRDC3", "setting": "gene ARRDC3, 20 ug/mL", "value": 1.9, "unit": "Fold"}, {"measurement": "Fold Up- or Down-Regulation BAMBI", "setting": "gene BAMBI, 20 ug/mL", "value": 1.3, "unit": "Fold"}, {"measurement": "Fold Up- or Down-Regulation CCL20", "setting": "gene CCL20, 20 ug/mL", "value": 2.6, "unit": "Fold"}, {"measurement": "Fold Up- or Down-Regulation CDKN1A", "setting": "gene CDKN1A, 20 ug/mL", "value": "−1.4", "unit": "Fold"}, {"measurement": "Fold Up- or Down-Regulation CSF1", "setting": "gene CSF1, 20 ug/mL", "value": 1.1, "unit": "Fold"}, {"measurement": "Fold Up- or Down-Regulation CSF2", "setting": "gene CSF2, 20 ug/mL", "value": "−1.1", "unit": "Fold"}, {"measurement": "Fold Up- or Down-Regulation CXCL1", "setting": "gene CXCL1, 20 ug/mL", "value": 2.7, "unit": "Fold"}, {"measurement": "Fold Up- or Down-Regulation CXCL2", "setting": "gene CXCL2, 20 ug/mL", "value": 3.0, "unit": "Fold"}, {"measurement": "Fold Up- or Down-Regulation CXCL3", "setting": "gene CXCL3, 20 ug/mL", "value": "−1.1", "unit": "Fold"}, {"measurement": "Fold Up- or Down-Regulation CXCL8", "setting": "gene CXCL8, 20 ug/mL", "value": 1.3, "unit": "Fold"}, {"measurement": "Fold Up- or Down-Regulation CXCL10", "setting": "gene CXCL10, 20 ug/mL", "value": 7.6, "unit": "Fold"}, {"measurement": "Fold Up- or Down-Regulation CYB561", "setting": "gene CYB561, 20 ug/mL", "value": "−1.2", "unit": "Fold"}, {"measurement": "Fold Up- or Down-Regulation CYP1A1", "setting": "gene CYP1A1, 20 ug/mL", "value": 2.8, "unit": "Fold"}, {"measurement": "Fold Up- or Down-Regulation DDX5", "setting": "gene DDX5, 20 ug/mL", "value": 2.1, "unit": "Fold"}, {"measurement": "Fold Up- or Down-Regulation DEFB1", "setting": "gene DEFB1, 20 ug/mL", "value": 3.4, "unit": "Fold"}, {"measurement": "Fold Up- or Down-Regulation EPGN", "setting": "gene EPGN, 20 ug/mL", "value": 1.2, "unit": "Fold"}, {"measurement": "Fold Up- or Down-Regulation FGF2", "setting": "gene FGF2, 20 ug/mL", "value": "−2.1", "unit": "Fold"}, {"measurement": "Fold Up- or Down-Regulation FOS", "setting": "gene FOS, 20 ug/mL", "value": 15.9, "unit": "Fold"}, {"measurement": "Fold Up- or Down-Regulation G2E3", "setting": "gene G2E3, 20 ug/mL", "value": 4.1, "unit": "Fold"}, {"measurement": "Fold Up- or Down-Regulation GDF15", "setting": "gene GDF15, 20 ug/mL", "value": 1.7, "unit": "Fold"}, {"measurement": "Fold Up- or Down-Regulation GPADH", "setting": "gene GPADH (housekeeping), 20 ug/mL", "value": "−1.9", "unit": "Fold"}, {"measurement": "Fold Up- or Down-Regulation GPX2", "setting": "gene GPX2, 20 ug/mL", "value": 5.5, "unit": "Fold"}, {"measurement": "Fold Up- or Down-Regulation HBEGF", "setting": "gene HBEGF, 20 ug/mL", "value": 3.1, "unit": "Fold"}, {"measurement": "Fold Up- or Down-Regulation HECTD1", "setting": "gene HECTD1, 20 ug/mL", "value": 1.2, "unit": "Fold"}, {"measurement": "Fold Up- or Down-Regulation HERC1", "setting": "gene HERC1, 20 ug/mL", "value": 3.5, "unit": "Fold"}, {"measurement": "Fold Up- or Down-Regulation HIF1AN", "setting": "gene HIF1AN, 20 ug/mL", "value": "−1.6", "unit": "Fold"}, {"measurement": "Fold Up- or Down-Regulation HPRT1", "setting": "gene HPRT1 (housekeeping), 20 ug/mL", "value": 1.6, "unit": "Fold"}, {"measurement": "Fold Up- or Down-Regulation HSP90B1", "setting": "gene HSP90B1, 20 ug/mL", "value": 1.2, "unit": "Fold"}, {"measurement": "Fold Up- or Down-Regulation IFI44L", "setting": "gene IFI44L, 20 ug/mL", "value": 3.9, "unit": "Fold"}, {"measurement": "Fold Up- or Down-Regulation JUN", "setting": "gene JUN, 20 ug/mL", "value": 3.3, "unit": "Fold"}, {"measurement": "Fold Up- or Down-Regulation JUNB", "setting": "gene JUNB, 20 ug/mL", "value": 1.6, "unit": "Fold"}, {"measurement": "Fold Up- or Down-Regulation LTB4R", "setting": "gene LTB4R, 20 ug/mL", "value": "−1.3", "unit": "Fold"}, {"measurement": "Fold Up- or Down-Regulation MAFF", "setting": "gene MAFF, 20 ug/mL", "value": "−1.1", "unit": "Fold"}, {"measurement": "Fold Up- or Down-Regulation MAP1LC3B", "setting": "gene MAP1LC3B, 20 ug/mL", "value": 1.2, "unit": "Fold"}, {"measurement": "Fold Up- or Down-Regulation MAPK14", "setting": "gene MAPK14, 20 ug/mL", "value": "−1.7", "unit": "Fold"}, {"measurement": "Fold Up- or Down-Regulation MGAT1", "setting": "gene MGAT1, 20 ug/mL", "value": "−1.0", "unit": "Fold"}, {"measurement": "Fold Up- or Down-Regulation MGAT5", "setting": "gene MGAT5, 20 ug/mL", "value": "−1.8", "unit": "Fold"}, {"measurement": "Fold Up- or Down-Regulation MOGS", "setting": "gene MOGS, 20 ug/mL", "value": "−2.8", "unit": "Fold"}, {"measurement": "Fold Up- or Down-Regulation N4BP1", "setting": "gene N4BP1, 20 ug/mL", "value": 1.7, "unit": "Fold"}, {"measurement": "Fold Up- or Down-Regulation NFKBIA", "setting": "gene NFKBIA, 20 ug/mL", "value": 4.6, "unit": "Fold"}, {"measurement": "Fold Up- or Down-Regulation PELI1", "setting": "gene PELI1, 20 ug/mL", "value": "−1.5", "unit": "Fold"}, {"measurement": "Fold Up- or Down-Regulation PLAUR", "setting": "gene PLAUR, 20 ug/mL", "value": 2.1, "unit": "Fold"}, {"measurement": "Fold Up- or Down-Regulation PPP1R15A", "setting": "gene PPP1R15A, 20 ug/mL", "value": 3.2, "unit": "Fold"}, {"measurement": "Fold Up- or Down-Regulation PTGFRN", "setting": "gene PTGFRN, 20 ug/mL", "value": "−4.6", "unit": "Fold"}, {"measurement": "Fold Up- or Down-Regulation PTGS2", "setting": "gene PTGS2, 20 ug/mL", "value": "−1.1", "unit": "Fold"}, {"measurement": "Fold Up- or Down-Regulation PTX3", "setting": "gene PTX3, 20 ug/mL", "value": 1.1, "unit": "Fold"}, {"measurement": "Fold Up- or Down-Regulation REL", "setting": "gene REL, 20 ug/mL", "value": 1.6, "unit": "Fold"}, {"measurement": "Fold Up- or Down-Regulation RSAD2", "setting": "gene RSAD2, 20 ug/mL", "value": 1.9, "unit": "Fold"}, {"measurement": "Fold Up- or Down-Regulation SAMD9L", "setting": "gene SAMD9L, 20 ug/mL", "value": 1.3, "unit": "Fold"}, {"measurement": "Fold Up- or Down-Regulation SOD2", "setting": "gene SOD2, 20 ug/mL", "value": 1.2, "unit": "Fold"}, {"measurement": "Fold Up- or Down-Regulation SPRR2B", "setting": "gene SPRR2B, 20 ug/mL", "value": 2.4, "unit": "Fold"}, {"measurement": "Fold Up- or Down-Regulation TGFB1", "setting": "gene TGFB1, 20 ug/mL", "value": "−1.9", "unit": "Fold"}, {"measurement": "Fold Up- or Down-Regulation TNF", "setting": "gene TNF, 20 ug/mL", "value": 16.4, "unit": "Fold"}, {"measurement": "Fold Up- or Down-Regulation TNFAIP3", "setting": "gene TNFAIP3, 20 ug/mL", "value": 2.4, "unit": "Fold"}, {"measurement": "Fold Up- or Down-Regulation UBE2S", "setting": "gene UBE2S, 20 ug/mL", "value": 2.2, "unit": "Fold"}, {"measurement": "Fold Up- or Down-Regulation UBE3B", "setting": "gene UBE3B, 20 ug/mL", "value": 1.2, "unit": "Fold"}, {"measurement": "Fold Up- or Down-Regulation UBE4B", "setting": "gene UBE4B, 20 ug/mL", "value": 1.2, "unit": "Fold"}, {"measurement": "Fold Up- or Down-Regulation UBE20", "setting": "gene UBE20, 20 ug/mL", "value": 1.8, "unit": "Fold"}, {"measurement": "Fold Up- or Down-Regulation VCP", "setting": "gene VCP, 20 ug/mL", "value": "−2.0", "unit": "Fold"}, {"measurement": "Fold Up- or Down-Regulation VEGFA", "setting": "gene VEGFA, 20 ug/mL", "value": 1.5, "unit": "Fold"}]}
